“And” between values parts separate entries of the source, which are not always exact repeats. Equal entries are not always repeated.
What was measured:
[1] = test system: P. dumerilii embryos; test: Developmental toxicity (EC50) of OH-DCQ and 2,6-DCQ to P. dumerilii embryos; format: in vivo, Platynereis dumerilii
Protocol: The third aliquot was subjected to the developmental toxicity assay with P. dumerilii embryos. The aliquot was dissolved in 10 mL of seawater and adjusted to pH 8.2. The embryos at 12-h postfertilization were exposed to different levels of OH-DCQ for 12 h. By 24-h postfertilization, normally and abnormally developed embryos were counted using an inverted stereomicroscope. Based on the percentage of normally developed embryos, an exposure−response curve was generated. The median effective concentration (EC50) was determined using SigmaPlot 12 software. The developmental toxicity of 2,6-DCQ was also evaluated for comparison. The toxicity bioassay was conducted in duplicate.

[2] = UPLC/ESI-tqMS time profile of 2,6-DCQ and its degradation products in simulated seawater (pH 8.2, darkness); OH-DCQ formation; details: for Concentration: 2,6-DCQ degradation / OH-DCQ formation; for Peak area: 2,6-DCQ degradation
Protocol: A Waters UPLC system coupled with ESI-tqMS was used to characterize the degradation products of 2,6-DCQ. The UPLC separation was performed using an HSS T3 column (100 × 2.1 mm, 1.8 μm particle size, Waters) with a column temperature of 35 °C. A gradient eluent of methanol–water was applied at a flow rate of 0.4 mL min^−1. The gradient program was set as follows: methanol/water (v/v) ratio changed linearly from 5/95 to 90/10 in the first 8 min and then returned to 5/95 during 8.0‒8.1 min, which was held for 2.9 min for re-equilibration. The ESI-tqMS was set as follows: ESI negative mode, capillary voltage 2.8 kV, cone voltage 10–50 V (depending on analytes), cone gas flow 50 L h^−1, source temperature 120 °C, desolvation temperature 400 °C, desolvation gas flow 800 L h^−1, collision energy 15–50 eV (depending on analytes), collision gas (argon) flow 0.25 mL min^−1, and mass resolution 15 (1-unit resolution).
The degradation of 2,6-DCQ in seawater was simulated by adding 10 mg L^−1 2,6-DCQ to 50 mL ultrapure water, which was adjusted to pH 8.2 with 5 mM sodium carbonate (to simulate the alkalinity in seawater and also to be compatible with the subsequent UPLC/ESI-tqMS analysis). The sample was kept in darkness for 0–24 h, during which the pH of the sample was maintained at 8.1 ± 0.1. At a designated reaction time, 7.5 μL of the sample was injected into the UPLC system. For a nonhalogenated degradation product, the selected ion recording (SIR) mode with a dwell time of 0.05 s was adopted to obtain the retention time. For halogenated degradation products, the multiple reaction monitoring mode with a dwell time of 0.05 s was used to obtain the retention time and the isotopic abundance ratio. To investigate the time-dependent profile of 2,6-DCQ and its degradation products, the peak area of each compound was determined using the SIR mode in the UPLC/ESI-tqMS analysis.
The second aliquot was subjected to analysis of total organic halogen to quantify the collected OH-DCQ. The determination of total organic halogen was based on Standard Method 5320B[52], with modifications of using off-line ion chromatography for halide detection. Briefly, the aliquot was dissolved in 100 mL ultrapure water and acidified to pH 2 with concentrated nitric acid[52] prior to adsorption onto pre-packed activated carbon columns (Mitsubishi). A three-channel adsorption module (TXA03C, Mitsubishi Chemical Analytech) was used for adsorption. An AQF-100 automatic quick furnace (Mitsubishi Chemical Analytech) was used for pyrolysis. During the pyrolysis process, the chlorine atoms in OH-DCQ were converted to chloride. The chloride ion concentration was determined using an ICS-3000 ion chromatography system (Dionex). 2,6-DCQ was used as a standard compound for measuring total organic halogen to determine the recovery of the analysis. The total organic halogen analysis was conducted in duplicate.

O=C1C=C(Cl)C(=O)C(Cl)=C1O [OH-DCQ, 3-hydroxyl-2,6-dichloro-1,4-benzoquinone]
Normal development ([1]; OH-DCQ concentration 15 mg L-1): 92.9293% and 86.7257%
Normal development ([1]; OH-DCQ concentration 25 mg L-1): 83.1776% and 81.579%
Normal development ([1]; OH-DCQ concentration 35 mg L-1): 84.1584% and 85.7144%
Normal development ([1]; OH-DCQ concentration 40 mg L-1): 83.0189% and 85.5855%
Normal development ([1]; OH-DCQ concentration 48 mg L-1): 79.8164% and 77.4194%
Normal development ([1]; OH-DCQ concentration 65 mg L-1): 67.0813% and 64.9575%
Normal development ([1]; OH-DCQ concentration 85 mg L-1): 48.8761% and 42.0329%
Degradation time at which concentration reached its maximum ([2]; 10 mg L−1, pH 8.2): 5.5 h
Concentration ([2]; degradation time 0 h): 0.3882 mg/L
Concentration ([2]; degradation time 0.25 h): 1.568 mg/L
Concentration ([2]; degradation time 0.5 h): 2.136 mg/L
Concentration ([2]; degradation time 0.75 h): 2.523 mg/L
Concentration ([2]; degradation time 1 h): 2.564 mg/L
Concentration ([2]; degradation time 1.25 h): 2.851 mg/L
Concentration ([2]; degradation time 1.5 h): 2.913 mg/L
Concentration ([2]; degradation time 1.75 h): 3.134 mg/L
Concentration ([2]; degradation time 2 h): 3.157 mg/L
Concentration ([2]; degradation time 2.25 h): 3.402 mg/L
Concentration ([2]; degradation time 2.5 h): 3.558 mg/L
Concentration ([2]; degradation time 2.75 h): 3.742 mg/L
Concentration ([2]; degradation time 3 h): 3.837 mg/L
Concentration ([2]; degradation time 3.25 h): 4.027 mg/L
Concentration ([2]; degradation time 3.5 h): 4.055 mg/L
Concentration ([2]; degradation time 3.75 h): 4.03 mg/L
Concentration ([2]; degradation time 4 h): 4.244 mg/L
Concentration ([2]; degradation time 4.5 h): 4.217 mg/L
Concentration ([2]; degradation time 5 h): 4.0996 mg/L
Concentration ([2]; degradation time 5.5 h): 4.364 mg/L
Concentration ([2]; degradation time 6 h): 4.268 mg/L
Concentration ([2]; degradation time 8 h): 4.1924 mg/L
Concentration ([2]; degradation time 10 h): 3.83 mg/L
Concentration ([2]; degradation time 12 h): 3.886 mg/L
Concentration ([2]; degradation time 14 h): 3.91 mg/L
Concentration ([2]; degradation time 16 h): 3.9298 mg/L
Concentration ([2]; degradation time 18 h): 3.711 mg/L
Concentration ([2]; degradation time 20 h): 3.724 mg/L
Concentration ([2]; degradation time 24 h): 3.646 mg/L
Peak area ([2]; pH 8.2, darkness, 0 h): 2432
Peak area ([2]; pH 8.2, darkness, 0.25 h): 9916
Peak area ([2]; pH 8.2, darkness, 0.5 h): 13509
Peak area ([2]; pH 8.2, darkness, 0.75 h): 15961
Peak area ([2]; pH 8.2, darkness, 1 h): 16217
Peak area ([2]; pH 8.2, darkness, 1.25 h): 18034
Peak area ([2]; pH 8.2, darkness, 1.5 h): 18424
Peak area ([2]; pH 8.2, darkness, 1.75 h): 19823
Peak area ([2]; pH 8.2, darkness, 2 h): 19969
Peak area ([2]; pH 8.2, darkness, 2.25 h): 21520
Peak area ([2]; pH 8.2, darkness, 2.5 h): 22505
Peak area ([2]; pH 8.2, darkness, 2.75 h): 23670
Peak area ([2]; pH 8.2, darkness, 3 h): 24273
Peak area ([2]; pH 8.2, darkness, 3.25 h): 25472
Peak area ([2]; pH 8.2, darkness, 3.5 h): 25650
Peak area ([2]; pH 8.2, darkness, 3.75 h): 25488
Peak area ([2]; pH 8.2, darkness, 4 h): 26847
Peak area ([2]; pH 8.2, darkness, 4.5 h): 26676
Peak area ([2]; pH 8.2, darkness, 5 h): 25931
Peak area ([2]; pH 8.2, darkness, 5.5 h): 27605
Peak area ([2]; pH 8.2, darkness, 6 h): 26995
Peak area ([2]; pH 8.2, darkness, 8 h): 26518
Peak area ([2]; pH 8.2, darkness, 10 h): 24223
Peak area ([2]; pH 8.2, darkness, 12 h): 24578
Peak area ([2]; pH 8.2, darkness, 14 h): 24730
Peak area ([2]; pH 8.2, darkness, 16 h): 24857
Peak area ([2]; pH 8.2, darkness, 18 h): 23474
Peak area ([2]; pH 8.2, darkness, 20 h): 23553
Peak area ([2]; pH 8.2, darkness, 24 h): 23064
Maximum concentration as share of initial molar concentration of 2,6-DCQ ([2]; pH 8.2, darkness): 41%

Reference: PMC11161644, “An effective and rapidly degradable disinfectant from disinfection byproducts” (Nature Communications, 2024)
